Here are results for 1 compound from patent US20190022088A1 (RedHill Biopharma Ltd., priority 2017, published 2019).

One data set addresses T1, Human Trypsin-3 (Homo sapiens, UniProt P35030).
T1 sequence (P35030 81-304 limits assumed): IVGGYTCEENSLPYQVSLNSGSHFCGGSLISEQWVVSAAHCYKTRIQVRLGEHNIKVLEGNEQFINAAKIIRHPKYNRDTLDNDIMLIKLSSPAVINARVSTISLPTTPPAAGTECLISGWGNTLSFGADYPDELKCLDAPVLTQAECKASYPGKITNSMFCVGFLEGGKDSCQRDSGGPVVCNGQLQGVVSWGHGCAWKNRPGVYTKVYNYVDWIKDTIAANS
The data set can be described thus: Ki of WX-UK1, chromogenic substrate cleavage. The class given is biochemical. The settings on record: 37° C., 0.5% BSA, pH=7.4, read-out: Ki (μM) Mean ± SD (n).

Data set [1] concerns the target T2, trypsin-2 (Homo sapiens, UniProt P07478). The data set can be described thus: Ki of WX-UK1, chromogenic substrate cleavage. The class given is biochemical. The settings on record: 37° C., 0.5% BSA, pH=7.4, read-out: Ki (μM) Mean ± SD (n).
A further data set has as its target Human Trypsin-1 (Homo sapiens, UniProt P07477). Kind of data set: Ki of WX-UK1, chromogenic substrate cleavage. The settings on record: 37° C., 0.5% BSA, pH=7.4, read-out: Ki (μM) Mean ± SD (n). Format: biochemical.
In another data set the target is Human Tryptase-. The data set can be described thus: Ki of WX-UK1, chromogenic substrate cleavage. Format: biochemical. The settings on record: Human Tryptase- (isoform character is an image); 37° C., 0.5% BSA, pH=7.4; read-out: Ki (μM) Mean ± SD (n). As to the method:
(§1) Samples of the selected proteases were prepared and characterized biochemically with respect to inhibitory constant (Ki) of inhibition by WX-UK1-1 and affinity (Kd) of the interaction.
Substrate concentrations were kept high in order to stay around 10% turnover per run.

Data set [2] has as its target T2, trypsin-2. Kind of data set: Drug-binding kinetic studies. As to the method:
as §1

Another data set can be described thus: Solubility. Format: physicochemical.
The target of data set [3] is urokinase type plasminogen activator (uPA) (Homo sapiens, UniProt P00749). The settings on record: previously shown; cited from earlier work.
The next data set deals with plasmin (Homo sapiens, UniProt P00747). The settings on record: previously shown; cited from earlier work.
The next data set relates to implanted tumors. The settings on record: parenterally administered; cited from earlier work.

T2 sequence (P07478 24-247): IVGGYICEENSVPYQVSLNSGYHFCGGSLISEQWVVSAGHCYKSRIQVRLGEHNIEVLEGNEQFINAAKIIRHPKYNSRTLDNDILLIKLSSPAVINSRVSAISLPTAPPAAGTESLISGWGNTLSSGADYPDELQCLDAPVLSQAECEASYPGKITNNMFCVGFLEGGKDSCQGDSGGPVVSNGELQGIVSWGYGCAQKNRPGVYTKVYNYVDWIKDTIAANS
plasmin, sequence (P00747 581-810 limits assumed, species assumed): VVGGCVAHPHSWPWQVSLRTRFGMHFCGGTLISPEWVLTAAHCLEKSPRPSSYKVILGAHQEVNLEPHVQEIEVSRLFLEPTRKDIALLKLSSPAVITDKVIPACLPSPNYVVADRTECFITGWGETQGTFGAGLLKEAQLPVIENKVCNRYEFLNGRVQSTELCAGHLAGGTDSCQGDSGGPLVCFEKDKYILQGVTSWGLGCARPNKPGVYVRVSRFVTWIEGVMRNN
plasmin, sequence (P00747 97-580 partner limits assumed, species assumed): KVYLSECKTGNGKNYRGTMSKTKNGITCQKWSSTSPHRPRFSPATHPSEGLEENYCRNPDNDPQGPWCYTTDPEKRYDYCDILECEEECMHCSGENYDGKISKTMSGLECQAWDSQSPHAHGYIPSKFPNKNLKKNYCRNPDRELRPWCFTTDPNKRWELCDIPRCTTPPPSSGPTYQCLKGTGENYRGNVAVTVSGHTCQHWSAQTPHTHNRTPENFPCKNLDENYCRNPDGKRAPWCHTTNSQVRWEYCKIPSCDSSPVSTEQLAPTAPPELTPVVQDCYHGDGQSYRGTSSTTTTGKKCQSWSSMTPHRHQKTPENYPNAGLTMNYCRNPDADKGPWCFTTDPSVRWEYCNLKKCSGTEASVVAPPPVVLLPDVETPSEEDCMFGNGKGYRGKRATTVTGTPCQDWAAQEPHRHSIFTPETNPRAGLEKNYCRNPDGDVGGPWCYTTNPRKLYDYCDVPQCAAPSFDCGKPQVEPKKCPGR

On to `CCOC(=O)N1CCN(C(=O)C(Cc2cccc(C(=N)N)c2)NS(=O)(=O)c2c(C(C)C)cc(C(C)C)cc2C(C)C)CC1` (stereo not drawn) [WX-UK1, N-α-(2,4,6-triisopropylphenylsulfonyl)-3-amidino-(L)-phenylalanine 4-ethoxycarbonylpiperazide], for which the Ki (as a rule, the equilibrium dissociation constant of an inhibitor or competing ligand from its target) on Human Trypsin-3 is ~0.019 µM; on trypsin-2 [1], ~0.075 µM; at Human Trypsin-1 it was ~0.19 µM; at Human Tryptase-, 11 ± 2 µM; in data set [3], 650 to 900 nM; at plasmin, 1460 to 2400 nM. Moreover, the “rate of association with trypsin-2 compared with uPA” value at trypsin-2 [2] is “faster”. Further, the “rate of dissociation from trypsin-2 compared with uPA” value on trypsin-2 [2] is reported as “slower”. Also, the solubility in water entry in the data set “Solubility” is reported as “poor solubility”. Besides, the “growth rate of implanted tumors” value in the data set on implanted tumors is “reduce the growth rate of implanted tumors”. In addition, the “invasion into nearby lymph nodes and spreading to distant target organs of metastasis” value in the data set on implanted tumors was “inhibit their invasion into nearby lymph nodes and their spreading to distant target organs of metastasis”.
